Where two headings read alike, the source gives them in different places.
Tests used:
α4β2 nAChR = molecular target: T1, α4β2 nAChR (Rattus norvegicus, UniProt P09483+P12390); assay: [3H]-epibatidine competition binding, α4β2 nAChR in stably transfected HEK 293 cells; conditions: competition against [3H]-epibatidine
T1 construct: expressed in transfected cells; host or cells: HEK 293
Text: (§1) Pharmacological Properties. We measured the in vitro binding affinities of the ligands for defined receptor subtypes (α2β2, α2β4, α3β2, α3β4, α4β2, α4β4, α6β2, α6β4, and α7) expressed in stably transfected cell lines. […] Rat forebrain homogenates were included to allow comparison between the heterologous and native α4β2 and α7 nAChRs.
(§2) To determine selectivities of these compounds in binding assays among the three predominant nAChR subtypes, α3β4, α4β2, and α7, the ratios of Ki values (α3β4/α4β2 and α7/α4β2) were determined.
(§3) The cell lines expressing defined rat nAChR subtypes were established previously by stably transfecting HEK 293 cells with rat nAChR subunit genes. The cell line expressing human α4β2 nAChRs, YXα4β2H1, was established recently. These cell lines were maintained in minimum essential medium (MEM) supplemented with 10% fetal bovine serum, 100 units/mL penicillin G, […] streptomycin and selective antibiotics at 37° C. with 5% CO2 in a humidified incubator. Fetal bovine scrum was provided by Gemini Bio-Products (Woodland, Calif.). Tissue culture medium and antibiotics were obtained from Invitrogen Corporation (Carlsbad, Calif.), unless otherwise stated.
(§4) Briefly, cultured cells at >80% confluence were removed from their flasks (80 cm^2) with a disposable cell scraper and placed in 10 mL of 50 mM Tris⋅HCl buffer (pH 7.4, 4° C.). The cell suspension was centrifuged at 10,000×g for 5 min and the pellet was collected. The cell pellet was then homogenized in 10 mL buffer with a polytron homogenizer and centrifuged at 36,000 g for 10 min at 4° C. The membrane pellet was resuspended in fresh buffer, and aliquots of the membrane preparation were used for binding assays. […] Bound and free ligands were separated by vacuum filtration through Whatman GF/C filters treated with 0.5% polyethylenimine. The filter-retained radioactivity was measured by liquid scintillation counting. Specific binding was defined as the difference between total binding and nonspecific binding. Data from competition binding assays were analyzed using Prism 5 (GraphPad Software, San Diego, Calif.).

rat α3β4 nAChRs = molecular target: T2, rat α3β4 nAChRs (Rattus norvegicus, UniProt P04757+P12392); assay: 86Rb+ efflux assay in cells expressing rat α3β4 nAChRs; format: cell-based; conditions: for Emax: read-out: α3β4 Emax; for α3β4 Emax: efficacy compared to 100 μM (−)-nicotine
T2 construct: expressed in transfected cells; host or cells: HEK 293
Method: (§5) The functional properties of the ligands were determined by ^86Rb^| efflux assays in cells expressing α3β4 and α4β2 nAChR subtypes. The functional activity of each ligand was measured for its agonism, antagonism and desensitization ability. Agonist activity for each of the ligands was tested at eight different concentrations. […] The full concentration-effect curves generated potency (EC50) and efficacy (Emax) of each ligand. […] Each ligand was tested for antagonist activity at eight concentrations. The potency (IC50(0′)) of each ligand as an antagonist was derived from the full concentration-effect curves. […] Although ^86Rb^+ efflux assays are mainly used to determine functional properties, whole cell current measurements were also used to verify the key experiments.
(§6) In Vitro Effects on nAChR Function. […] Their agonist activities were assessed by measuring stimulated ^86Rb^+ efflux from stably transfected cells, either expressing human α4β2 nAChRs or rat α3β4 receptors.
as §3
(§7) Functional properties of compounds at nAChRs expressed in the transfected cells were measured using ^86Rb^+ efflux assays as described previously. In brief, cells expressing human α4β2 or rat α3β4 nAChRs were plated into 24-well plates coated with poly-D-lysine. The plated cells were grown at 37° C. for 18 to 24 hour to reach 85-95% confluence. The cells were then incubated in growth medium (0.5 mL/well) containing ^86Rb^+ (2 μCi/mL) for 4 hour at 37° C. The loading mixture was then aspirated, and the cells were washed four times with 1 mL buffer (15 mM HEPES, 140 mM NaCl, 2 mM KCl, 1 mM MgSO4, 1.8 mM CaCl2, 11 mM Glucose, pH 7.4). One mL of buffer with or without compounds to be tested was then added to each well. After incubation for 2 min, the assay buffer was collected for measurements of ^86R^+ released from the cells. Cells were then lysed by adding 1 mL of 100 mM NaOH to each well, and the lysate was collected for determination of the amount of ^86Rb^+ that was in the cells at the end of the efflux assay. Radioactivity of assay samples and lysates was measured by liquid scintillation counting. Total loading (cpm) was calculated as the sum of the assay sample and the lysate of each well. The amount of ^86Rb^+ efflux was expressed as a percentage of ^86Rb^| loaded. […] For obtaining EC50 and Emax values, stimulation curves were constructed in which 8 different concentrations of a ligand were included in the assay. […] EC50, Emax and IC50(10′) values were determined by nonlinear least-squares regression analyses (GraphPad, San Diego, Calif.).

human α4β2 nAChRs = molecular target: T3, human α4β2 nAChRs (Homo sapiens, UniProt P17787+P43681); assay: 86Rb+ efflux assay in cells expressing human α4β2 nAChRs; format: cell-based; conditions: for α4β2 Emax: efficacy compared to 100 μM (−)-nicotine; for IC50: desensitization, 10 min pre-treatment before 100 μM (−)-nicotine
T3 construct: expressed in transfected cells
Method: as §5, §6, §3, §7

α7 nAChR = molecular target: T4, α7 nAChR (Rattus norvegicus, UniProt Q05941); assay: biochemical; format: binding; conditions: competition against [3H]-epibatidine
T4 construct: expressed in transfected cells; host or cells: HEK 293
Text: as §1, §2
as §3, with “Fetal bovine scrum was provided by Gemini Bio-Products (Woodland, Calif.). Tissue culture medium and antibiotics were obtained from Invitrogen Corporation (Carlsbad, Calif.), unless otherwise stated.” left out
Briefly, cultured cells at >80% confluence were removed from their flasks (80 cm^2) with a disposable cell scraper and placed in 10 mL of 50 mM Tris⋅HCl buffer (pH 7.4, 4° C.). […] The filter-retained radioactivity was measured by liquid scintillation counting. […] Data from competition binding assays were analyzed using Prism 5 (GraphPad Software, San Diego, Calif.).

α3β4 nAChR = molecular target: T5, α3β4 nAChR (Rattus norvegicus, UniProt P04757+P12392); assay: [3H]-epibatidine competition binding, α3β4 nAChR in stably transfected HEK 293 cells; conditions: competition against [3H]-epibatidine
T5 construct: expressed in transfected cells; host or cells: HEK 293
Text: as §1, §2, §3, §4

[1] = agonist activity, stimulated 86Rb+ efflux, read-out: α3β4 EC50

Structure (SMILES)	Ki (α4β2 nAChR) [nM]	EC50 (rat α3β4 nAChRs) [nM]	Emax (rat α3β4 nAChRs) [%]	agonist activity at the α3β4 nAChRs (in words) (rat α3β4 nAChRs; stimulated 86Rb+ efflux)	EC50 (human α4β2 nAChRs) [nM]	α4β2 Emax (human α4β2 nAChRs; di-trifluoroacetic acid) [%]	Emax (human α4β2 nAChRs; read-out: α4β2 Emax, efficacy compared to 100 μM (−)-nicotine) [%]	Ki (α7 nAChR) [nM]	Ki (α3β4 nAChR) [nM]	IC50 (human α4β2 nAChRs) [nM]	EC50 (rat α3β4 nAChRs; [1]) [nM]	α3β4 Emax (rat α3β4 nAChRs) [%]	IC50 (rat α3β4 nAChRs; desensitization, 10 min pre-treatment before 100 μM (−)-nicotine) [nM]	EC50 (human α4β2 nAChRs; agonist activity, stimulated 86Rb+ efflux, read-out: α4β2 EC50) [nM]	α4β2 Emax (human α4β2 nAChRs) [%]	agonist activity at the α4β2 nAChRs (in words) (human α4β2 nAChRs)	Emax (human α4β2 nAChRs; read-out: α4β2 Emax) [%]
FCCCCC#Cc1cnc(F)c(OC[C@@H]2CCN2)c1 [YL-2-203, (S)-3-(azetidin-2-ylmethoxy)-2-fluoro-5-(6-fluorohex-1-ynyl)pyridine di-trifluoroacetic acid]	0.2	6300	26	did not show detectable agonist activity	35	33	< 33	11000	93								
CCCCC#Cc1cnc(C)c(OC[C@@H]2CCN2)c1 [YL-1-127, (S)-3-(azetidin-2-ylmethoxy)-5-(hex-1-ynyl)-2-methylpyridine]	14	11000	10	did not show detectable agonist activity					575	260							
c1cnc2cc3c(cc2n1)[C@@H]1CNC[C@H]3C1 [Varenicline]	0.14								27		3200	82					
OCCCCC#Cc1cncc(OC[C@@H]2CCN2)c1 [Sazetidine-A]	0.034							670	6.5	11	730	96	1300	24	40		
CN1CCCC1c1cccnc1 (single isomer, unassigned; (-)) [(−)-Nicotine]																full agonist activities	100
